# Laboratory results reported in patent US9044474B2, “Compositions and methods for increasing drug efficacy in cancer” (The Ohio State University, priority 2010, dated 2015).
# Where a name gives a salt, the structure may show the parent alone.
# Legend:
# CLL cells [1] = experiment: LC3 confocal immunofluorescence (autophagosome formation) in CLL cells in vitro; type: cell-based, human; conditions: for LC3 aggregation / LC3 fluorescence (autophagosome formation) versus vehicle: CLL patient cells, 4 hours, rapamycin 5 μM, thapsigargin 1 μM, F-ara-A 5 μM, chlorambucil 20 μM, CAL-101 1 μM, rituximab 10 μg/ml, flavopiridol 2 μM, CQ 0.5 μM
# Experimental: After 4 hours exposure to agents, cells were washed in phosphate-buffered saline (PBS) and made adherent on a microscope slide by centrifugation in a Cytospin3 (Shandon) centrifuge. Immediately after cytospin, cells were fixed in cold acetone. […] Nuclei were stained blue with DAPI (Vector Laboratories, Burlingame, Calif.). Images were taken using a 60× objective and 4× digital zoom with Olympus Fluoview 1000 Laser Scanning Confocal microscope at the Ohio State University Campus Microscopy and Imaging Facility. ATF6 antibody was purchased from LifeSpan Biosciences (Seattle, Wash.) and Nrf2 was from Santa Cruz Biotechnology (Santa Cruz, Calif.). Nuclei were evaluated for ATF6 and Nrf2 using confocal microscopy to collect Z stacks, approximately 45 slices per cell, 0.2 μm each.
# LC3 intensity and number of dots per cell were both assessed in the fluorescence images. Integrated intensity was measured using Metamorph v.7.0. To calculate the number of “dots” (local extreme point in pixel-intensity profile at which a number of high-intensity pixels form a cluster), a Gaussian filter was first applied to reduce noise. Cells were enumerated electronically by an improved watershed-based algorithm. To quantify co-localization, two binary nuclei images—red (R) and green (G)—are obtained. The correlation value is calculated as the number of white pixels of (R&G) divided by the number of pixels of (RIG), where (R&G) is the intersection of R and G, and (RIG) is the union of R and G. The program used for cell counts and measurement of correlation index is based on MatLab software (Natick, Mass.) and it was developed by members of Department of Biomedical Informatics, The Ohio State University.
# CLL cells [2] = experiment: Cell viability by annexin V/PI flow cytometry in CLL cells
# Experimental: Percent of live cells was determined by staining with annexin V-fluorescein isothiocyanate and propidium iodide (PI). After exposure to agents, cells were washed with PBS and stained in 1× binding buffer (BD Biosciences, Franklin Lakes, N.J.). Cell viability was assessed by flow cytometry using a Beckman-Coulter Cytomics FC500 cytometer. Data were analyzed with the CXP Cytometer software package (Beckman-Coulter). A total of 10,000 cells were counted for each sample. The cells treated with flavopiridol were washed after 4 hours with PBS and re-suspended in regular growth medium (RPMI 1640) supplemented with 10% human serum and antibiotics for the remainder of the incubation time. […] For all the other conditions, cells were incubated with the respective drugs for 24 hours continuously.
# CLL cells were suspended in buffer V (Amaxa kit, Lonza, Allendale, N.J.) and nucleofection was performed using program U016 (5 μg siRNA and 1×10^7 cells per cuvette). Scrambled siRNA and siRNAs to ATG5, ATG7 and ASK1 were purchased from Sigma-Aldrich. Cells were immediately suspended in warm, complete media supplemented with 10% human serum, and RNA was extracted after 36 hours. For CDK1 and CDK5, siRNAs were purchased from Applied Biosystems (Carlsbad, Calif.). Transfections were done using 5 nM siRNA per cuvette, and RNA was harvested at 48 hours.
# p62 [3] = experiment: p62 immunoblot in CLL cells treated in vitro; type: cell-based, human; conditions: flavopiridol 2 μM, 4 hours
# Experimental: (§1) Proteins extracted from whole cell lysates (50 μg/lane) were separated on polyacrylamide gels and transferred on nitrocellulose membrane. Antibodies used for immunoblots included LC3, IRE1α, TRAF2, PI3K III, ATG4C, ATG5-12, UVRAG, Beclin-1 (Cell Signaling, Boston, Mass.), GAPDH, Nrf2, ASK1, ULK1 (Santa Cruz Biotechnology), and Bif-1, ATG14-Barkor (Sigma-Aldrich, St Louis, Mo.). Species-appropriate secondary antibodies were obtained from BioRad Laboratories (Hercules, Calif.). Following antibody incubations, proteins were detected using a chemiluminescent substrate (BioRad Laboratories). For co-immunoprecipitations, TrueBlot beads (eBiosciences, San Diego, Calif.) and One-hour IP Western kit (GenScript, Piscataway, N.J.) were used according to manufacturer protocols. Quantification was done using FluorChem Q (Alpha Innotech, San Leandro Calif.).
# p62 [4] = experiment: p62 immunoblot in samples from CLL patients treated with flavopiridol; type: in vivo, human; conditions: samples at 4.5 hours post flavopiridol infusion
# Experimental: In this trial, CLL cells were collected pre- and post-therapy 4.5 hours, day 1 (n=16). By confocal fluorescence microscopy, both increased autophagosome formation (P=0.0011) and fusion with lysosomes is observed (FIG. 3F). […] The level of autophagy, as assessed by LC3 fluorescence intensity, was overall greater in non-responders versus responders in both pre- and post-treatment samples (P=0.018); however, the increase in intensity at 4.5 hours post- vs. pre-treatment was only slightly higher for non-responders compared to responders (fold change of 2.51 vs. 1.82, P=0.3445). […] Collectively, these studies provide evidence that our in vitro observations are relevant to the clinical setting.
# as §1, with “For co-immunoprecipitations, TrueBlot beads (eBiosciences, San Diego, Calif.) and One-hour IP Western kit (GenScript, Piscataway, N.J.) were used according to manufacturer protocols.” left out
# XBP1, IRE1, GRP78 = experiment: Real-time RT-PCR of ER stress genes in CLL cells in vitro; type: cell-based, human; conditions: CLL cells n=5; flavopiridol 2 μM, thapsigargin 1 μM, tunicamycin 3 μg/ml; CD52 control gene
# Experimental: (§2) RNA was extracted using TRIzol reagent (Invitrogen, Carlsbad, Calif.) and purified using QIAGEN RNeasy columns (Qiagen, Valencia, Calif.). cDNA was prepared with SuperScript First-Strand Synthesis System (Invitrogen). Real-time PCR was performed using primers purchased from Applied Biosystems. Detection was performed using an ABI Prism 7700 sequence detection system (Applied Biosystems). Average relative expression (treatment compared with vehicle) was normalized to the internal control gene CD52. Primers to detect spliced XBP1 were designed using Primer 3 software and purchased from IDT. Samples were analyzed on 10% acrylamide gels.
# XBP1, IRE1, GRP78, CHOP = experiment: Real-time RT-PCR of ER stress genes in CLL cells from patients undergoing flavopiridol treatment; type: in vivo, human; conditions: CLL patients n=10, 4.5 hour
# Experimental: as §2
# Jurkat cell line = experiment: eIF2α phosphorylation immunoblot in cell lines (control); type: cell-based
# Experimental: as §1
# JNK1 and p38MAPK = experiment: Immunoblot of phosphorylated JNK1 and p38MAPK in CLL cells in vitro; type: cell-based, human; conditions: flavopiridol 2 μM, thapsigargin 1 μM, F-ara-A 5 μM
# Experimental: as §1
# caspases 4 and 8 = experiment: Caspase 4 and 8 activity in samples from CLL patients treated with flavopiridol; type: in vivo, human; conditions: 4.5 hours following flavopiridol infusion
# Experimental: The presence of active caspase enzymes was determined by the AFC assay. Briefly, lysates containing approximately 3×10^6 cells were incubated with 50 μM LEVD-AFC (caspase 4 substrate) or LETD-AFC (caspase 8 substrate) from MP Biomedicals (Solon, Ohio) in 2× cytobuffer from BioVision (Exton, Pa.) containing 10 mM dithiothretiol (DTT). Caspase 4 activity was measured one hour after addition of substrate and caspase 8 activity was measured 30 minutes after addition of substrate. Release of free AFC was measured with a Beckman-Coulter DTX 880 multimode detector (Filters: excitation, 405/10 nm; emission, 535/25 nm). Caspase 4 inhibitor Z-YVAD-FMK was purchased from R&D Systems.
compound,measurement,setting,value
"CN1CC[C@H](c2c(O)cc(O)c3c(=O)cc(-c4ccccc4Cl)oc23)[C@H](O)C1 [flavopiridol, (cis-5,7-dihydroxy-2-(2-chlorophenyl)-8-[4-(3-hydroxy-1-methyl)-piperidin-yl]-1-benzopyran-4-one)hydrochloride]","LC3 fluorescence time course, flavopiridol vs vehicle","CLL cells [1]; CLL cells n=3, flavopiridol washed out after 4 hours","significant (P=0.001) at 3, 4 and 8 hours, and decreased to levels comparable to vehicle alone at 12 and 24 hours"
same,LC3 aggregation / LC3 fluorescence (autophagosome formation) versus vehicle,CLL cells [1],formation of autophagosomes was observed
same,LC3 aggregation / LC3 fluorescence (autophagosome formation) versus vehicle,CLL cells [1]; listed as Flavopiridol,comparable to the increase seen with rapamycin
same,effect of ASK1 siRNA vs scrambled siRNA on sensitivity to the agent,"CLL cells [2]; CLL cells n=5, flavopiridol 2 μM",significantly (P=0.005) more resistant
same,effect of chloroquine addition on cell death caused by the agent,"CLL cells [2]; CLL cells, annexin/PI negative, CQ 0.5 μM, flavopiridol 4 hours then washed, CQ continuous 24 hours",significantly enhances the cytotoxicity
same,effect of ATG5/ATG7 siRNA vs scrambled siRNA on cytotoxicity of the agent,"CLL cells [2]; CLL cells, viability at 24 hours, thapsigargin 1 μM, flavopiridol 2 μM",significantly increased
same,p62 protein level,p62 [3],p62 levels are decreased
same,p62 protein expression,p62 [4],a decrease in protein expression
same,"expression of ER stress genes XBP1, IRE1 and GRP78","XBP1, IRE1, GRP78","significant, time-dependent increase in expression of ER stress genes XBP1, IRE1 and GRP78"
same,"expression of XBP1, IRE1 and GRP78 genes, pre-treatment vs end of infusion","XBP1, IRE1, GRP78, CHOP","significant increases in XBP1, IRE1 and GRP78 genes"
same,eIF2α phosphorylation,Jurkat cell line,dramatic EIF2α phosphorylation
same,phosphorylation of JNK1 and p38MAPK,JNK1 and p38MAPK,induced the phosphorylation of both JNK1 and p38MAPK
same,patient samples with at least a two-fold increase in activity of caspases 4 and 8,caspases 4 and 8,13 of 20
